Structure (SMILES) | melting point [°C]
CCCCc1ccc(N(c2nc(N[C@H]3CCCC[C@H]3C(N)=O)nc3c2ncn3CC)S(N)(=O)=O)cc1 (relative stereo) [Example 1, cis-2-[6-(4-butyl-aminosulfonyl-phenylamino)-9-ethyl-9H-purin-2-yl-amino]-cyclohexanecarboxylic acid amide] | 220
CCn1cnc2c(Nc3cccc(C(=O)NCc4ccccc4)c3)nc(N[C@H]3CC[C@H](O)CC3)nc21 [Example 72, N-benzyl-3-[9-ethyl-2-(trans-4-hydroxy-cyclohexylamino)-9H-purin-6-yl-amino]-benzamide] | 215
CCn1cnc2c(Nc3cccc(C(=O)NCc4ccc(F)cc4)c3)nc(N[C@H]3CC[C@H](O)CC3)nc21 [Example 73, 3-[9-ethyl-2-(trans-4-hydroxy-cyclohexylamino)-9H-purin-6-yl-amino]-N-(4-fluoro-benzyl)-benzamide] | 165 to 167
CCn1cnc2c(Nc3cccc(C(=O)NCc4ccc(C)cc4)c3)nc(N[C@H]3CC[C@H](O)CC3)nc21 [Example 74, 3-[9-ethyl-2-(trans-4-hydroxy-cyclohexylamino)-9H-purin-6-yl-amino]-N-(4-methyl-benzyl)-benzamide] | 130 to 134
CCn1cnc2c(Nc3cccc(C(=O)NCc4ccc(OC)cc4)c3)nc(N[C@H]3CC[C@H](O)CC3)nc21 [Example 75, 3-[9-ethyl-2-(trans-4-hydroxy-cyclohexylamino)-9H-purin-6-yl-amino]-N-(4-methoxy-benzyl)-benzamide] | 157 to 158
CCn1cnc2c(Nc3cccc(C(=O)NCc4ccc(C(F)(F)F)cc4)c3)nc(N[C@H]3CC[C@H](O)CC3)nc21 [Example 76, 3-[9-ethyl-2-(trans-4-hydroxy-cyclohexylamino)-9H-purin-6-yl-amino]-N-(4-trifluoromethyl-benzyl)-benzamide] | 129 to 137
CCn1cnc2c(Nc3cccc(NS(=O)(=O)c4ccc(OC)cc4)c3)nc(N[C@H]3CC[C@H](O)CC3)nc21 [Example 82, N-{3-[9-Ethyl-2-(trans-4-hydroxy-cyclo-hexylamino)-9H-purin-6-yl-amino]-phenyl}-4-methoxy-benzenesulfonamide] | 140 to 143
CCn1cnc2c(Nc3cccc(NC(=O)C#Cc4ccc(Cl)cc4)c3)nc(N[C@H]3CC[C@H](O)CC3)nc21 [Example 92, N-{3-[9-Ethyl-2-(trans-4-hydroxy-cyclo-hexylamino)-9H-purin-6-yl-amino]-phenyl}-3-(4-chlorophenyl)-propargylic acid amide] | 148 to 150
CCn1cnc2c(Nc3cccc(NC(=O)C#Cc4ccc(F)cc4)c3)nc(N[C@H]3CC[C@H](O)CC3)nc21 [Example 93, N-{3-[9-Ethyl-2-(trans-4-hydroxy-cyclo-hexylamino)-9H-purin-6-yl-amino]-phenyl}-3-(4-fluorophenyl)-propargylic acid amide] | 144 to 146
CC(C)n1cnc2c(Nc3cccc(NC(=O)C#Cc4ccc(Cl)cc4)c3)nc(NC3CCC(O)CC3)nc21 (stereo not drawn) [Example 96, 3-(4-Chloro-phenyl)-propynoic acid {3-[2-(4-hydroxy-cyclohexylamino)-9-isopropyl-9H-purin-6-ylamino]-phenyl}-amide] | 156 to 158
Cc1ccc(C#CC(=O)Nc2cccc(Nc3nc(NC4CCC(O)CC4)nc4c3ncn4C(C)C)c2)cc1 (stereo not drawn) [Example 97, 3-p-Tolyl-propynoic acid {3-[2-(4-hydroxy-cyclohexylamino)-9-isopropyl-9H-purin-6-ylamino]-phenyl}-amide] | 152 to 154
COc1ccc(C#CC(=O)Nc2cccc(Nc3nc(NC4CCC(O)CC4)nc4c3ncn4C(C)C)c2)cc1 (stereo not drawn) [Example 98, 3-(4-Methoxy-phenyl)-propynoic acid {3-[2-(4-hydroxy-cyclohexyl-amino)-9-isopropyl-9H-purin-6-ylamino]-phenyl)-amide] | 246 to 248
CC(C)n1cnc2c(Nc3cccc(NC(=O)C#Cc4ccc(F)cc4)c3)nc(NC3CCC(O)CC3)nc21 (stereo not drawn) [Example 99, 3-(4-Fluoro-phenyl)-propynoic acid {3-[2-(4-hydroxy-cyclohexylamino)-9-isopropyl-9H-purin-6-ylamino]-phenyl}-amide] | 145 to 147
CC(C)n1cnc2c(Nc3cccc(NC(=O)C#Cc4ccccc4)c3)nc(NC3CCC(O)CC3)nc21 (stereo not drawn) [Example 100, 3-(Phenyl)-propynoic acid {3-[2-(4-hydroxy-cyclohexylamino)-9-isopropyl-9H-purin-6-ylamino]-phenyl}-amide] | 162 to 164
CC(C)n1cnc2c(Nc3cccc(NC(=O)c4ccc(-c5ccccc5)cc4)c3)nc(NC3CCC(O)CC3)nc21 (stereo not drawn) [Example 101, Biphenyl-4-carboxylic acid {3-[2-(4-hydroxy-cyclohexylamino)-9-isopropyl-9H-purin-6-ylamino]-phenyl]-amide] | 226 to 228
CCn1cnc2c(Nc3cccc(NC(=O)C#Cc4cccc(C)c4)c3)nc(NC3CCC(O)CC3)nc21 (stereo not drawn) [Example 102, 3-m-Tolyl-propynoic acid {3-[9-ethyl-2-(4-hydroxy-cyclohexylamino)-9H-purin-6-ylamino]-phenyl}-amide] | 164 to 171

Next, values leading:

melting point [°C] | Structure (SMILES)
135 to 139 | CCn1cnc2c(Nc3ccc(NC(=O)Oc4ccccc4)cc3)nc(N[C@H]3CC[C@H](O)CC3)nc21
131 to 134 | CCn1cnc2c(Nc3cccc(NC(=O)Oc4ccccc4)c3)nc(N[C@H]3CC[C@H](O)CC3)nc21
265 to 267 | CCn1cnc2c(Nc3cccc(NS(C)(=O)=O)c3)nc(N[C@H]3CC[C@H](O)CC3)nc21 [Example 80, N-{3-[9-Ethyl-2-(trans-4-hydroxy-cyclo-hexylamino)-9H-purin-6-yl-amino]-phenyl} methanesulfonamide]
131 to 135 | CCn1cnc2c(Nc3ccc(NC(=O)OC)cc3)nc(N[C@H]3CC[C@H](O)CC3)nc21 [Example 83, {4-(9-Ethyl-2-(trans-4-hydroxy-cyclo-hexylamino)-9H-purin-6-yl-amino]-phenyl)-carbamic acid methyl ester]
121 to 125 | CCn1cnc2c(Nc3ccc(NC(=O)OCC(C)C)cc3)nc(N[C@H]3CC[C@H](O)CC3)nc21 [Example 84, {4-[9-Ethyl-2-(trans-4-hydroxy-cyclo-hexylamino)-9H-purin-6-yl-amino]-phenyl}-carbamic acid isobutyl ester]
214 to 217 | CCn1cnc2c(Nc3cccc(NC(=O)OC)c3)nc(N[C@H]3CC[C@H](O)CC3)nc21 [Example 86, {3-[9-Ethyl-2-(trans-4-hydroxy-cyclo-hexylamino)-9H-purin-6-yl-amino]-phenyl}-carbamic acid methyl ester]
122 to 125 | CCn1cnc2c(Nc3cccc(NC(=O)OCC(C)C)c3)nc(N[C@H]3CC[C@H](O)CC3)nc21 [Example 87, {3-[9-Ethyl-2-(trans-4-hydroxy-cyclo-hexylamino)-9H-purin-6-yl-amino]-phenyl}-carbamic acid isobutyl ester]
142 to 144 | CCn1cnc2c(Nc3cccc(NC(=O)C#Cc4ccc(OC)cc4)c3)nc(N[C@H]3CC[C@H](O)CC3)nc21 [Example 95, N-{3-[9-Ethyl-2-(trans-4-hydroxy-cyclo-hexylamino)-9H-purin-6-yl-amino]-phenyl}-3-(4-methoxyphenyl)-propargylic acid amide]

Source: patent publication US6767906B2, “2-amino-6-anilino-purines and their use as medicaments” (Novartis AG, priority 1999, dated 2004)
